Measured values as given in patent publication US20240109930A1, “TRIAZOLYL-METHYL SUBSTITUTED ALPHA-D-GALACTOPYRANOSIDE DERIVATIVES” (Idorsia Pharmaceuticals Ltd, priority 2021, published 2024).

Assays:
[1] = molecular target: human Gal-3 (hGal-3) (Homo sapiens (Human), UniProt P17931); assay: Competitive binding assay: biotinylated hGal-3 binding to microplate-adsorbed asialofetuin (ASF); conditions: IC50 values from several measurements given as geomean
Summary of the method: (§1)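 Biotinylated hGal-3 or hGal-1 (preferably cysteine-free Cys→Ser mutant), 300–1000 ng/mL, competes with compound for ASF-coated wells for 3 h at 4 °C. Bound lectin detected with streptavidin-peroxidase (80 ng/mL, 1 h, 4 °C) and ABTS by absorbance; IC50 reported as geomean of several runs.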

[2] = molecular target: human Gal-1 (hGal-1) (Homo sapiens, UniProt P09382, C131S/C17S/C43S/C61S/C89S); assay: Competitive binding assay: biotinylated hGal-1 binding to microplate-adsorbed asialofetuin (ASF); conditions: IC50 values from several measurements given as geomean
Summary of the method: as §1

Chain of human Gal-3 (hGal-3) (P17931 whole entry): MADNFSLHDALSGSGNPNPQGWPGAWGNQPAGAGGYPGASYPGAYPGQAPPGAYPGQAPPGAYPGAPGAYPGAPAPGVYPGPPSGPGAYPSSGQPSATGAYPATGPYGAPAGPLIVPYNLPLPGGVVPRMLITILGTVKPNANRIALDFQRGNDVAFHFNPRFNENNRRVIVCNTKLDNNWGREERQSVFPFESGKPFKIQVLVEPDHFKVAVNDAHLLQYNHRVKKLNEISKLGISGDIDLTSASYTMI

| SMILES | IC50 [1] [nM] | IC50 [2] [nM] |
| --- | --- | --- |
| CO[C@@H]1[C@@H](n2cc(-c3ccc(Br)c(F)c3F)nn2)[C@@H](O)[C@@H](CO)O[C@@H]1Cc1cn(C2(CF)CC2)nn1 [Ex 4.1.46., (2R,3R,4S,5R,6R)-4-(4-(4-bromo-2,3-difluorophenyl)-1H-1,2,3-triazol-1-yl)-6-((1-(1-(fluoromethyl)cyclopropyl)-1H-1,2,3-triazol-4-yl)methyl)-2-(hydroxymethyl)-5-methoxytetrahydro-2H-pyran-3-ol] | 30 | 1940 |
| CO[C@@H]1[C@@H](n2cc(-c3ccc(Br)c(F)c3F)nn2)[C@@H](O)[C@@H](CO)O[C@@H]1Cc1cn(C2(C(F)F)CC2)nn1 [Ex 4.1.51.] | 30 | 1290 |
| CO[C@@H]1[C@@H](n2cc(-c3ccc(Br)c(F)c3F)nn2)[C@@H](O)[C@@H](CO)O[C@@H]1Cc1cn(C2(CF)COC2)nn1 [Ex 4.1.52., (2R,3R,4S,5R,6R)-4-(4-(4-bromo-2,3-difluorophenyl)-1H-1,2,3-triazol-1-yl)-6-((1-(3-(fluoromethyl)oxetan-3-yl)-1H-1,2,3-triazol-4-yl)methyl)-2-(hydroxymethyl)-5-methoxytetrahydro-2H-pyran-3-ol] | 30 | 850 |
| CO[C@@H]1[C@@H](n2cc(-c3ccc(Br)c(F)c3F)nn2)[C@@H](O)[C@@H](CO)O[C@@H]1Cc1cn(C2(C(F)F)COC2)nn1 [Ex 4.1.53.] | 20 | 650 |
| CO[C@@H]1[C@@H](n2cc(-c3ccc(Br)c(F)c3F)nn2)[C@@H](O)[C@@H](CO)O[C@@H]1Cc1cn(C2(C(F)(F)F)CC2)nn1 [Ex 4.1.54.] | 30 | 1170 |
| CO[C@@H]1[C@@H](n2cc(-c3ccc(Br)c(F)c3F)nn2)[C@@H](O)[C@@H](CO)O[C@@H]1Cc1cn(C2(C(F)(F)F)CCC2)nn1 [Ex 4.1.55., (2R,3R,4S,5R,6R)-4-(4-(4-bromo-2,3-difluorophenyl)-1H-1,2,3-triazol-1-yl)-2-(hydroxymethyl)-5-methoxy-6-((1-(1-(trifluoromethyl)cyclobutyl)-1H-1,2,3-triazol-4-yl)methyl)tetrahydro-2H-pyran-3-ol] | 30 | 1480 |
| CO[C@@H]1[C@@H](n2cc(-c3ccc(Br)c(F)c3F)nn2)[C@@H](O)[C@@H](CO)O[C@@H]1Cc1cn(C2(C(F)(F)F)COC2)nn1 [Ex 4.1.58.] | 20 | 1070 |
| CO[C@@H]1[C@@H](n2cc(-c3ccc(Br)c(F)c3F)nn2)[C@@H](O)[C@@H](CO)O[C@@H]1Cc1cn(C23COC(C)(C2)C3)nn1 [Ex 4.1.59., (2R,3R,4S,5R,6R)-4-(4-(4-bromo-2,3-difluorophenyl)-1H-1,2,3-triazol-1-yl)-2-(hydroxymethyl)-5-methoxy-6-((1-(1-methyl-2-oxabicyclo[2.1.1]hexan-4-yl)-1H-1,2,3-triazol-4-yl)methyl)tetrahydro-2H-pyran-3-ol] | 30 | 2030 |
| CO[C@@H]1[C@@H](n2cc(-c3ccc(Br)c(F)c3F)nn2)[C@@H](O)[C@@H](CO)O[C@@H]1Cc1cn(C23CCOC(C)(C2)C3)nn1 [Ex 4.1.62., (2R,3R,4S,5R,6R)-4-(4-(4-bromo-2,3-difluorophenyl)-1H-1,2,3-triazol-1-yl)-2-(hydroxymethyl)-5-methoxy-6-((1-(1-methyl-2-oxabicyclo[3.1.1]heptan-5-yl)-1H-1,2,3-triazol-4-yl)methyl)tetrahydro-2H-pyran-3-ol] | 20 | 2030 |
| CO[C@@H]1[C@@H](n2cc(-c3ccc(Br)c(F)c3F)nn2)[C@@H](O)[C@@H](CO)O[C@@H]1Cn1cc(C2(CO)CC2)nn1 [Ex 4.2.4.] | 70 | 4640 |
| CO[C@@H]1[C@@H](n2cc(-c3ccc(Br)c(F)c3F)nn2)[C@@H](O)[C@@H](CO)O[C@@H]1Cn1cc(C2(C)COC2)nn1 [Ex 4.2.6.] | 70 | 2530 |
| CO[C@@H]1[C@@H](n2cc(-c3ccc(Br)c(F)c3F)nn2)[C@@H](O)[C@@H](CO)O[C@@H]1Cn1cc(C23CC(C2)C3)nn1 [Ex 4.2.12.] | 90 | 3310 |
